Each structure is given as a SMILES string. Like-named read-outs stand apart in the source and are kept apart here.

Here are results for 14 compounds from patent publication US7189720B2 (H. Lundbeck A/S, priority 1999, dated 2007).

This assay deals with T1, human Y5 receptor (Homo sapiens, UniProt Q15761).
T1 construct: expressed in transfected cells; host or cells: mouse fibroblast LM(tk-) cells, e.g. L-hY5-7 (ATCC CRL-11995)
T1 sequence (Q15761 1-445): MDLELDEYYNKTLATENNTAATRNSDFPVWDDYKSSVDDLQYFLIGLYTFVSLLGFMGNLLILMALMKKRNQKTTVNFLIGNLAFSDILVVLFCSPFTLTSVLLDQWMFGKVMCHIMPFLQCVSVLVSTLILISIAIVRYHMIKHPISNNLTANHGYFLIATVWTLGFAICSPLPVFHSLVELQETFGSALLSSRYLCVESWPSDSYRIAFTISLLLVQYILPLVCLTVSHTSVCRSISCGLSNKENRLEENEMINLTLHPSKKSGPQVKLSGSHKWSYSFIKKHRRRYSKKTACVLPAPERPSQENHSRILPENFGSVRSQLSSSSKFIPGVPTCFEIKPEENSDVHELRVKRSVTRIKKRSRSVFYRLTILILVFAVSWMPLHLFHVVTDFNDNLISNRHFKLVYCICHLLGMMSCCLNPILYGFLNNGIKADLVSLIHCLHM
The experiment in a line: Radioligand binding to membranes, cloned human Y5 receptor.

Setting [1] is: Table 1, read-out: Ki (nM) hNPY-5.
The mark [2] stands for this setting: Table 2, read-out: Ki (nM) hNPY-5.
Where [3] appears, read: Table 6, read-out: Ki, nM hNPY-5.
Setting [4] is: Table 5, read-out: Ki, nM hNPY-5.
Setting [5] is: Table 4, read-out: Ki (nM) hNPY-5.

Regarding `CCCCNc1nc(NCC2CCC(CNS(=O)(=O)c3cccc4ccccc34)CC2)nc(NC(C)C)n1` (centres unmarked) [Example 6, N1-[4-([4-(butylamino)-6-(isopropylamino)-1,3,5-triazin-2-yl]aminomethyl)cyclohexyl]methyl-1-naphthalenesulfonamide], the Ki (as a rule, a dissociation constant, usually derived from enzyme kinetics or from competition with a known ligand) under setting [1] was found to be 22 nM.
With `CCNc1nc(NCC2CCC(CNS(=O)(=O)c3cccc4ccccc34)CC2)nc(NC(C)C)n1` (centres unmarked) [Example 2, N1-[4-([4-(ethylamino)-6-(isopropylamino)-1,3,5-triazin-2-yl]aminomethyl)cyclohexyl]methyl-1-naphthalenesulfonamide], the Ki under setting [1] is 7 nM.
Turning to `CCNc1nc(NCC)nc(NCC2CCC(CNS(=O)(=O)c3oc(C)nc3C)CC2)n1` (centres unmarked) [Example 36, N5-[4-([4,6-di(ethylamino)-1,3,5-triazin-2-yl]aminomethyl)cyclohexyl]methyl-2,4-dimethyl-1,3-oxazole-5-sulfonamide], under setting [2], the Ki is 71 nM.
Turning to `O=C(NCCCCCNc1nc2c(s1)CCSc1ccccc1-2)c1ccc2ccccc2c1` [Example 142, N2-[5-(4,5-Dihydrobenzo[2,3]thiepino[4,5-d][1,3]thiazol-2-ylamino)pentyl]-2-naphthamide], the Ki under setting [3] was 100 nM.
In the case of `O=S(=O)(NCCCCCCNc1nc2c(s1)CCSc1ccccc1-2)c1c(Cl)nc2sccn12` [Example 117, N5-[6-(4,5-Dihydrobenzo[2,3]thiepino[4,5-d][1,3]thiazol-2-ylamino)hexyl]-6-chloroimidazo[2,1-b][1,3]thiazole-5-sulfonamide], the Ki under setting [3] was found to be 6.6 nM.
Turning to `Cc1nc(-c2csc(NCCCCCNS(=O)(=O)N(C)C)n2)c(C)s1` [Example 96, N′-(5-[4-(2,5-Dimethyl-1,3-thiazol-4-yl)-1,3-thiazol-2-yl]aminopentyl)-N,N-dimethylsulfamide], under setting [4], the Ki was 8.1 nM.
Regarding `CCNc1nc(NCC)nc(NCc2ccccn2)n1` [Example 58, N2,N4-diethyl-N6-(2-pyridylmethyl)-1,3,5-triazine-2,4,6-triamine], the Ki under setting [5] was over 100000 nM.
Consider `CCCNc1nc(NCC2CCC(CNS(=O)(=O)c3cccc4ccccc34)CC2)nc(NC(C)C)n1` (centres unmarked) [Example 5, N1-[4-([4-(isopropylamino)-6-(propylamino)-1,3,5-triazin-2-yl]aminomethyl)cyclohexyl]methyl-1-naphthalenesulfonamide], for which the Ki under setting [1] was 18 nM.
Turning to `O=S(=O)(NCCCCCCNc1nc2c(s1)CCSc1ccccc1-2)c1c(Cl)cccc1Cl` [Example 146, N1-[6-(4,5-Dihydrobenzo[2,3]thiepino[4,5-d][1,3]thiazol-2-ylamino)hexyl]-2,6-dichloro-1-benzenesulfonamide], the Ki under setting [3] is 25 nM.
`COCCN(C=O)[C@H]1CC[C@H](CNc2nc(-c3nc(C)sc3C)cs2)CC1` [Example 101, trans-N-[4-([4-(2,5-Dimethyl-1,3-thiazol-4-yl)-1,3-thiazol-2-yl]aminomethyl)cyclohexyl]-N-(2-methoxyethyl)formamide]: the Ki under setting [4] was found to be 407 nM.
Take `CCNc1nc(NCC)nc(NCC2CCC(CNS(=O)(=O)c3cccc4cccnc34)CC2)n1` (centres unmarked) [Example 41, N8-[4-([4,6-di(ethylamino)-1,3,5-triazin-2-yl]aminomethyl)cyclohexyl]methyl-8-quinolinesulfonamide]: the Ki under setting [2] is 13 nM.
`CN(C)S(=O)(=O)NC[C@H]1CC[C@H](Nc2nc(-c3nccs3)cs2)CC1` [Example 90, trans-N,N-dimethyl-N′-[(4-[4-(-1,3-thiazol-2-yl)-1,3-thiazol-2-yl]aminocyclohexyl)methyl]sulfamide]: the Ki under setting [4] worked out at 17.5 nM.
In the case of `O=S(=O)(NCC1CCC(CNc2nc(NC3CC3)nc(-c3ccccn3)n2)CC1)c1ccc(F)cc1` (centres unmarked) [Example 55, N1-[4-([4-(cyclopropylamino)-6-(2-pyridyl)-1,3,5-triazin-2-yl]aminomethyl)cyclohexyl]methyl-4-fluoro-1-benzenesulfonamide], the Ki (Table 3, read-out: Ki (nM) hNPY-5) was 209 nM.
Turning to `CCNc1nc(NCC)nc(NCCCCCn2cccn2)n1` [Example 56, N2,N4-diethyl-N6-[5-(1H-1-pyrazolyl)pentyl]-1,3,5-triazine-2,4,6-triamine], the Ki under setting [5] amounted to 94400 nM.
